Measurements taken from patent US6545182B2, “Methods and compositions for modulating alpha adrenergic receptor activity” (Allergan Sales, Inc., priority 2000, dated 2003).

Tests used:
[1] = system: rats with ligated L5 and L6 spinal nerves; test: rat spinal nerve ligation allodynia model (chronic pain); assay type: in vivo; conditions: for reduction of the response to tactile stimuli that indicate tactile allodynia: 30 minutes after drug, von Frey hairs
Experimental: (§1) The physiological activity of these compounds was tested using four models: a rat locomotor model to assess sedation, an assay of cardiovascular activity in monkeys, a rat thermal paw withdrawal assay (Dirig et al., J. Neurosci. Methods 76:183-191 (1997) to test the alleviation of acute pain, and the rat spinal nerve ligation allodynia model (Kim and Chung, Pain 50:355-363 (1992) to assess the alleviation of neuropathic pain and central sensitization typical of chronic pain. As is known to those of skill in the art, these tests are established pharmacological methods for determining sedation, cardiovascular effects, acute pain and chronic pain, respectively, of pharmaceutical agents.
A model for chronic pain (in particular peripheral neuropathy such as causalgia) involves the surgical ligation of the L5 (and optionally the L6) spinal nerves on one side in experimental animals. Rats recovering from the surgery gain weight and display a level of general activity similar to that of normal rats. However, these rats develop abnormalities of the foot, wherein the hindpaw is moderately everted and the toes are held together. More importantly, the hindpaw on the side affected by the surgery appears to become sensitive to pain from low-threshold mechanical stimuli, such as that producing a faint sensation of touch in a human, within about 1 week following surgery. This sensitivity to normally non-painful touch is called “tactile allodynia” and lasts for at least two months. The response includes lifting the affected hindpaw to escape from the stimulus, licking the paw and holding it in the air for many seconds. None of these responses is normally seen in the control group.
Rats are anesthetized before surgery. The surgical site is shaved and prepared either with betadine or Novacaine. Incision is made from the thoracic vertebra Xlll down toward the sacrum. Muscle tissue is separated from the spinal vertebra (left side) at the L4-S2 levels. The L6 vertebra is located and the transverse process is carefully removed with a small rongeur to expose the L4-L6 spinal nerves. The L5 and L6 spinal nerves are isolated and tightly ligated with 6-0 silk thread. The same procedure is done on the right side as a control, except no ligation of the spinal nerves is performed.
A complete hemostasis is confirmed, then the wounds are sutured. A small amount of antibiotic ointment is applied to the incised area, and the rat is transferred to the recovery plastic cage under a regulated heat-temperature lamp. On the day of the experiment, at least seven days after the surgery, six rats per test group are administered the test drugs by intraperitoneal (i.p.) injection or oral gavage. For i.p. injection, the compounds are formulated in approximately 50% DMSO and given in a volume of 1 ml/kg body weight. FORMULA 2 was tested at doses ranging between 1 and 300 μg /kg, FORMULA 3 was tested at doses between 0.1 and 3 mg/kg and FORMULA 4 was tested at doses of 0.3 and 3 mg/kg. FORMULA 2 was also administered by oral gavage at doses of 0.1, 0.3 and 1 mg/kg body weight to 24-hour fasted rats. A volume equal to 1 ml/kg body weight of an appropriate concentration (i.e. 1 mg/ml for a 1 mg/kg dose) of FORMULA 2 formulated in approximately 50% DMSO was injected using an 18-gauge, 3-inch gavage needle that is slowly inserted through the esophagus into the stomach.
Tactile allodynia is measured prior to and 30 minutes after drug administration using von Frey hairs that are a series of fine hairs with incremental differences in stiffness. Rats are placed in a plastic cage with a wire mesh bottom and allowed to acclimate for approximately 30 minutes. The von Frey hairs are applied perpendicularly through the mesh to the mid-plantar region of the rats' hindpaw with sufficient force to cause slight buckling and held for 6-8 seconds. The applied force has been calculated to range from 0.41 to 15.1 grams. If the paw is sharply withdrawn, it is considered a positive response. […]

[2] = system: patient two; test: treatment of visceral pain in a colon cancer patient; assay type: in vivo, human; conditions: intravenous infusion twice daily, after two days
Excerpt: patient two suffering from colon cancer and undergoing chemotherapy experiences severe visceral pain associated with this primary condition. Treatment of this pain with opiates have been ineffective to provide substantial relief.
The patient is given a therapeutic amount of FORMULA 3 by intravenous infusion in a pharmaceutically acceptable vehicle. The treatment is given twice daily.
Under the same facts as Example 7, except the patient is given FORMULA 2 instead of FORMULA 3.

[3] = system: patient one; test: treatment of allodynia resulting from shingles in a patient; assay type: in vivo, human; conditions: oral dose in capsule form, two days' treatment
Excerpt: person one in generally good physical condition suffers from serious pain to their upper body due caused by contact of their skin with their clothing. The patient is unable to wear clothing on their upper body without severe pain.
The patient is given a therapeutically effective oral dose of FORMULA 3 in capsule form as needed for the treatment of pain.
Same facts as in Example 5, except the patient is given a therapeutically effective oral dose of FORMULA 2 in capsule form as needed for the treatment of pain.

[4] = system: Sprague-Dawley rats; test: rat locomotor model to assess sedation; assay type: in vivo; conditions: 1 mg/kg i.p., 30 minutes after injection, vs vehicle controls
Experimental: as §1
To test sedation, six male Sprague-Dawley rats were given up to 3 mg/kg of each compound in a saline or DMSO vehicle by intraperitoneal injection (i.p.). Sedation was graded 30 minutes following administration of the drug by monitoring locomotor skills as follows.
The Sprague-Dawley rats are weighed and 1 ml/kg body weight of an appropriate concentration (i.e. 3 mg/ml for a final dose of 3 mg/kg) drug solution is injected intraperitoneally. FORMULA 3 is formulated in approximately 10% DMSO and FORMULA 2 and FORMULA 4 are formulated in 50% DMSO. The results are compared to 29 historical controls that were injected with 1 ml/kg saline or 50% DMSO. Rat activity is then determined 30 minutes after injection of the drug solution. Rats are placed in a dark covered chamber and a digicom analyzer (Omnitech Electronic) quantitates their exploratory behavior for a five-minute period. The machine records each time the rat interrupts an array of 32 photoelectric beams in the X and Y orientation.

SMILES | reduction of the response to tactile stimuli that indicate tactile allodynia [1] | percent reversal of allodynia ([1]; i.p. 10 μg/kg) | percent reversal of allodynia ([1]; i.p. 30 μg/kg) | percent reversal of allodynia ([1]; i.p. 100 μg/kg) | percent reversal of allodynia ([1]; i.p. 300 μg/kg) | percent reversal of allodynia ([1]; i.p. dose of 3 μg/kg) | alleviation of allodynic pain ([1]; oral doses ranging from 0.1 to 1 mg/kg, 24-hour fasted rats) | visceral pain, patient report [2] | allodynia resulting from shingles, patient report [3] | reduction in the exploratory activity of the rats (sedation) [4] | percent reversal of allodynic pain ([1]; i.p. 1 mg/kg) | percent reversal of allodynic pain ([1]; i.p. 3 mg/kg) | percent reversal of allodynic pain ([1]; i.p. dose of 0.3 mg/kg)
OCCNC(=S)NCc1cccc(Cl)c1F [FORMULA 2, 1-(3-chloro-2-fluorobenzyl)-3-(2-hydroxyethyl)-thiourea] | able to reduce the response to the tactile stimuli | 85% | 90% | 95% | 92% | 55% | 82-86% | significant alleviation | markedly reduced | none of the compounds caused a statistically significant reduction |  |  | 
OCCNC(=S)NCc1ccc(F)cc1 [FORMULA 3] | able to reduce the response to the tactile stimuli |  |  |  |  |  |  | significant alleviation | markedly reduced | none of the compounds caused a statistically significant reduction | 32% | 26% | 34%
